According to ChEMBL document CHEMBL1201862, “PubChem BioAssay data set” (2004):
Calls of active or inactive are those of the source.

How the values were obtained:
Ion channel NompC = Ion channel NompC (Danio rerio, UniProt Q7T1G6); assay: Fluorescence counterscreen assay for TRPML3 agonists: dose response cell-based high-throughput screening assay to identify agonists of the transient receptor potential channel N1 (TRPN1). [Related pubchem assays: 1526, 1424, 1448 ]; type: functional
Mucolipin-3 = target: T1, Mucolipin-3 (Homo sapiens, UniProt Q8TDD5); assay: Dose response cell-based high-throughput screening assay for agonists of the transient receptor potential channel ML3 (TRPML3). [Related pubchem assays: 1526, 1424, 1448 ]; type: functional
T1 sequence (Q8TDD5 whole entry): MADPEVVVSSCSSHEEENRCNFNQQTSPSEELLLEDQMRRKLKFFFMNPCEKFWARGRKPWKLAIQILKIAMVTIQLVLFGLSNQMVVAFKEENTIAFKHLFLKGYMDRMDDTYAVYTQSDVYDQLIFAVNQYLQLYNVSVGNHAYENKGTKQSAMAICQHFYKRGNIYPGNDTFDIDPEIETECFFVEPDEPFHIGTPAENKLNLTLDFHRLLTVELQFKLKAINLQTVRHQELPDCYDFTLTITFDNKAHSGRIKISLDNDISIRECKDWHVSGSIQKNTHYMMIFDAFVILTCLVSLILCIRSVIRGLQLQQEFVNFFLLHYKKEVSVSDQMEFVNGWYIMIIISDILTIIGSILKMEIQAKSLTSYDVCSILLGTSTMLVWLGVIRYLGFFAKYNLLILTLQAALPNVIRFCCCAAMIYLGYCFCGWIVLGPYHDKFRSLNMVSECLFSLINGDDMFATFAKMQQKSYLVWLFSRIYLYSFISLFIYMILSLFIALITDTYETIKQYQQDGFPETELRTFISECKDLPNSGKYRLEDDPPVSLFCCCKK

[1] = target: T2, Replicative DNA helicase DnaB (Mycobacterium tuberculosis, UniProt P9WMR3); assay: DnaB intein splicing inhibitors, dose response, biochemical, cell-free fluorescence (AID 449749); type: functional
T2 sequence (P9WMR3 whole entry): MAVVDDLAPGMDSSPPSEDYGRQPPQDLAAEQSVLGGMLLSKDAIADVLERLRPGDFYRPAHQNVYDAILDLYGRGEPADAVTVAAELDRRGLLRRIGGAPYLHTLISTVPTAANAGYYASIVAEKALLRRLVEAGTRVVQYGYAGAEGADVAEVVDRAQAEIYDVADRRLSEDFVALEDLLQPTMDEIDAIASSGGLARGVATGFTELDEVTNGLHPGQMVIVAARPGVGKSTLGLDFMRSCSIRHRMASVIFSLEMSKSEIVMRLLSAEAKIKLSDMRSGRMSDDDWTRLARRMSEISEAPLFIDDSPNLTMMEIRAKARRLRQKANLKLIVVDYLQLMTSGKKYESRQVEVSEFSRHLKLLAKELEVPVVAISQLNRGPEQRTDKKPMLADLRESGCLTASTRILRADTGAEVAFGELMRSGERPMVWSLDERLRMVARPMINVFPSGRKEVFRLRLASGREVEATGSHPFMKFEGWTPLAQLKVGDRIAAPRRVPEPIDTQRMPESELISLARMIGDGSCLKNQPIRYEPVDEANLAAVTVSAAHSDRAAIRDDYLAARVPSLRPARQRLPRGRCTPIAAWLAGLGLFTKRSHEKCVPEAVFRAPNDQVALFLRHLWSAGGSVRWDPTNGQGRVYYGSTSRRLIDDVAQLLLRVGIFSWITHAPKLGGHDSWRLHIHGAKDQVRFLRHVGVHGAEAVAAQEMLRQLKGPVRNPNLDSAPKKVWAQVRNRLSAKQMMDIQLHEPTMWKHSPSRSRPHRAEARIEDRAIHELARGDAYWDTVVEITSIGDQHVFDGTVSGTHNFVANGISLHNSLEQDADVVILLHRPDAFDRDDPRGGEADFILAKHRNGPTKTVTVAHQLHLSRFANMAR

[2] = growth suppression of beta-catenin-knockout colon cells, dose response, cell-based, HCT116, human colon tumor (AID 1045); type: functional;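 also: HCT116 colon tumor cells with beta catenin knocked out; cells exposed to compound for 60 hours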
Protein RecA = target: T3, Protein RecA (Mycobacterium tuberculosis, UniProt P9WHJ3); assay: Fluorescence Cell-Free Homogeneous Dose Retest to Identify Inhibitors of RecA-Intein Splicing Activity. [Related pubchem assays (depositor defined):AID2097, AID2223, AID489010, AID492950]; type: functional
T3 sequence (P9WHJ3 whole entry): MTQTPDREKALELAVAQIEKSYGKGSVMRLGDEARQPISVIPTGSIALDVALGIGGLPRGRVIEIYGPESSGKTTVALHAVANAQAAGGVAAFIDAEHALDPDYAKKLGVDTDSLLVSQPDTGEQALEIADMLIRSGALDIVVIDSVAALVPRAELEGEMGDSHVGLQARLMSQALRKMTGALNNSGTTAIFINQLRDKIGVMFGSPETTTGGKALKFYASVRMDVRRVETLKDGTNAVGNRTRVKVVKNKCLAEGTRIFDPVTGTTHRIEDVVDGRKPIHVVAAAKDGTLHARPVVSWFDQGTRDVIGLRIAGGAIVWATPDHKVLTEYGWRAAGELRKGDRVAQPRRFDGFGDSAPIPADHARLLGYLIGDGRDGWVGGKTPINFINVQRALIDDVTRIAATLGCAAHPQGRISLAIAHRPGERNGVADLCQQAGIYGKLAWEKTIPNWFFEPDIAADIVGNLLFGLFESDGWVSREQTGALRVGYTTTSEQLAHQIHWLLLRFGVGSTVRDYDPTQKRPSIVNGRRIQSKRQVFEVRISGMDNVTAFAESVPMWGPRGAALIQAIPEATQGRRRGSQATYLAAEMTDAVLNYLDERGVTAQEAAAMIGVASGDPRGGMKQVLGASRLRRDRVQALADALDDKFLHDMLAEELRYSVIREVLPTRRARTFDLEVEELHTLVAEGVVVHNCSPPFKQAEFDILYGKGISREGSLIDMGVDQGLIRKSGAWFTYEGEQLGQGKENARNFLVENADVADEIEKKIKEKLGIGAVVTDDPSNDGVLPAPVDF

[3] = growth suppression of PTEN-null colon cells, dose response, cell-based, HCT116 PTEN knockout (AID 1047); type: functional;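 also: HCT116 colon tumor cells with PTEN knocked out; cells exposed to compound for 60 hours before readout; potency for loss of cell viability measured by luminescence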
[4] = THP-1 cell cytotoxicity, dose response, cytotoxicity control for Vif-APOBEC3G degradation inhibitor project, THP-1 cells (AID 1117359); type: functional; conditions: Human immunodeficiency virus 1, THP-1
[5] = target: T4, Glutathione-S-transferase (Schistosoma japonicum, UniProt Q26513); assay: biotin-GST/anti-GST TR-FRET signal inhibitors, dose response, artefact control for Vif-APOBEC3G degradation inhibitor project, biochemical (AID 1117362); type: functional
T4 sequence (Q26513 whole entry): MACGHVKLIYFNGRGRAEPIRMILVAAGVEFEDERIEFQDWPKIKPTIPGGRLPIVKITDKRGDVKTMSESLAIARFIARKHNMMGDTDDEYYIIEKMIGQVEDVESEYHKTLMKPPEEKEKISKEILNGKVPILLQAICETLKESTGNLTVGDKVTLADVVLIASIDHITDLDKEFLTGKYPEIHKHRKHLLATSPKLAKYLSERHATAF

[6] = HepG2 cell cytotoxicity, dose response, cytotoxicity control, cherry-picked samples (AID 1159577); type: functional, cell-based
[7] = P. falciparum Dd2 growth inhibitors, dose response, SYBR Green, cherry-picked samples (AID 1159567); type: functional, cell-based
[8] = target: Mitogen-activated protein kinase 10 (Homo sapiens, UniProt P53779); assay: Dose response biochemical screening assay for inhibitors of c-Jun N-Terminal Kinase 3 (JNK3). [Related pubchem assays: 746 ]
Nonstructural protein 1 = Nonstructural protein 1 (Influenza A virus, UniProt Q194T2); type: functional, Influenza A virus (A/California/07/2009(H1N1))
[9] = target: T5, Histone-lysine N-methyltransferase NSD2 (Homo sapiens, UniProt O96028); type: biochemical
T5 sequence (O96028 whole entry): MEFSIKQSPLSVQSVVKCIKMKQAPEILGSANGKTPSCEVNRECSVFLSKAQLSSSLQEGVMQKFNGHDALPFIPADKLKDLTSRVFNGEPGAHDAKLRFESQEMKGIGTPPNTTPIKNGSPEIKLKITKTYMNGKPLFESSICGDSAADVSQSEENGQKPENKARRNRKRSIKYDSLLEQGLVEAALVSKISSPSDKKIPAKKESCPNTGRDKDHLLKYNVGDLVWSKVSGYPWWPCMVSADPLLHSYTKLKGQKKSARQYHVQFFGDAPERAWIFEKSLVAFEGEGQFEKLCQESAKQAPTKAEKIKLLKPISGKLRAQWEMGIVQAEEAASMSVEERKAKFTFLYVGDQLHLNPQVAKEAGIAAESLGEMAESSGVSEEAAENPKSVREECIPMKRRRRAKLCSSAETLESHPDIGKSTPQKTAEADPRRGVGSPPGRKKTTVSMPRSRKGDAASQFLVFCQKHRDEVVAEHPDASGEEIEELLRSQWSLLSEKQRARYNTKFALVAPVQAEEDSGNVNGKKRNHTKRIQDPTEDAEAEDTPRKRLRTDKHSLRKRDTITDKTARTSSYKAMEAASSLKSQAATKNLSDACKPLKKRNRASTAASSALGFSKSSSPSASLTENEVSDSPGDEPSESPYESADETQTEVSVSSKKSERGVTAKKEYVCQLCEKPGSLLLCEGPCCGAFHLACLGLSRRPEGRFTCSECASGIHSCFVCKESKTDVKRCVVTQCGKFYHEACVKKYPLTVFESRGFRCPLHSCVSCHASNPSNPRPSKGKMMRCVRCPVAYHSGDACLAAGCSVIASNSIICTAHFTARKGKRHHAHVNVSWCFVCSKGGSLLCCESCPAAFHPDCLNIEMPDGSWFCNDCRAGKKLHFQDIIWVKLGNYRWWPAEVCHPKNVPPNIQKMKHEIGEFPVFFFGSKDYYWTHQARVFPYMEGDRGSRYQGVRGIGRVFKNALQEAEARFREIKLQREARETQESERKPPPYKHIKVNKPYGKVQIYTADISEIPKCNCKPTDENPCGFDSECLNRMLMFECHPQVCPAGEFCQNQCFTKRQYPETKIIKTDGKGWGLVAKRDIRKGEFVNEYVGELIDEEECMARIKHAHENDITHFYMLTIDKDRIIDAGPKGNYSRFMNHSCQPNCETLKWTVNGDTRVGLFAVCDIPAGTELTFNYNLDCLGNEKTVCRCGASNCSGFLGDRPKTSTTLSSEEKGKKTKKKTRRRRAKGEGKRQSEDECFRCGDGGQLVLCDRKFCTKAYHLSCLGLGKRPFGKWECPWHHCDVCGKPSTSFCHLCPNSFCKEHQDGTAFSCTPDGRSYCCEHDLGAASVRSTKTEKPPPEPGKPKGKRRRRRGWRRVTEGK

[10] = P. falciparum Dd2 growth inhibitors, dose response, SYBR Green, dry powder samples (AID 1159566); type: functional, cell-based;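 also: potency for growth inhibition with lower SYBR green DNA signal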
[11] = P. falciparum 3D7-ScDHODH growth inhibitors, dose response, SYBR Green, dry powder samples (AID 1159570); type: functional, cell-based;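 also: parasite growth measured after 72 hours of compound exposure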
[12] = P. falciparum ATP4 D1247Y mutant growth inhibitors, dose response, NITD609-resistant line, SYBR Green, dry powder (AID 1159571); type: functional, cell-based;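 also: parasites synchronized at ring stage by sorbitol before testing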
[13] = NIH:OVCAR-3 ovarian cancer cell cytotoxicity, dose response, PAX8 inhibitor project, plate reader, dry powder samples (AID 743044); type: functional, cell-based
Paired box protein Pax-8 = Paired box protein Pax-8 (Homo sapiens, UniProt Q06710); assay: inhibitors of PAX8-driven TPO luciferase reporter, dose response, RMG-I cells, cherry-pick (AID 687027); type: functional, cell-based;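 also: luciferase reporter driven by Pax8 target thyroperoxidase promoter measured by SteadyGlo luminescence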
[14] = cytotoxicity in OVCAR8 ovarian cancer cells, dose response, PAX8 project, cell-based, plate reader, dry powder samples (AID 743197); type: functional; conditions: OVCAR-8
[15] = IGROV1 ovarian cancer cell cytotoxicity, dose response, PAX8 inhibitor project, plate reader, dry powder samples (AID 743043); type: functional, cell-based; conditions: IGROV-1

Chain of Ion channel NompC (Q7T1G6 whole entry): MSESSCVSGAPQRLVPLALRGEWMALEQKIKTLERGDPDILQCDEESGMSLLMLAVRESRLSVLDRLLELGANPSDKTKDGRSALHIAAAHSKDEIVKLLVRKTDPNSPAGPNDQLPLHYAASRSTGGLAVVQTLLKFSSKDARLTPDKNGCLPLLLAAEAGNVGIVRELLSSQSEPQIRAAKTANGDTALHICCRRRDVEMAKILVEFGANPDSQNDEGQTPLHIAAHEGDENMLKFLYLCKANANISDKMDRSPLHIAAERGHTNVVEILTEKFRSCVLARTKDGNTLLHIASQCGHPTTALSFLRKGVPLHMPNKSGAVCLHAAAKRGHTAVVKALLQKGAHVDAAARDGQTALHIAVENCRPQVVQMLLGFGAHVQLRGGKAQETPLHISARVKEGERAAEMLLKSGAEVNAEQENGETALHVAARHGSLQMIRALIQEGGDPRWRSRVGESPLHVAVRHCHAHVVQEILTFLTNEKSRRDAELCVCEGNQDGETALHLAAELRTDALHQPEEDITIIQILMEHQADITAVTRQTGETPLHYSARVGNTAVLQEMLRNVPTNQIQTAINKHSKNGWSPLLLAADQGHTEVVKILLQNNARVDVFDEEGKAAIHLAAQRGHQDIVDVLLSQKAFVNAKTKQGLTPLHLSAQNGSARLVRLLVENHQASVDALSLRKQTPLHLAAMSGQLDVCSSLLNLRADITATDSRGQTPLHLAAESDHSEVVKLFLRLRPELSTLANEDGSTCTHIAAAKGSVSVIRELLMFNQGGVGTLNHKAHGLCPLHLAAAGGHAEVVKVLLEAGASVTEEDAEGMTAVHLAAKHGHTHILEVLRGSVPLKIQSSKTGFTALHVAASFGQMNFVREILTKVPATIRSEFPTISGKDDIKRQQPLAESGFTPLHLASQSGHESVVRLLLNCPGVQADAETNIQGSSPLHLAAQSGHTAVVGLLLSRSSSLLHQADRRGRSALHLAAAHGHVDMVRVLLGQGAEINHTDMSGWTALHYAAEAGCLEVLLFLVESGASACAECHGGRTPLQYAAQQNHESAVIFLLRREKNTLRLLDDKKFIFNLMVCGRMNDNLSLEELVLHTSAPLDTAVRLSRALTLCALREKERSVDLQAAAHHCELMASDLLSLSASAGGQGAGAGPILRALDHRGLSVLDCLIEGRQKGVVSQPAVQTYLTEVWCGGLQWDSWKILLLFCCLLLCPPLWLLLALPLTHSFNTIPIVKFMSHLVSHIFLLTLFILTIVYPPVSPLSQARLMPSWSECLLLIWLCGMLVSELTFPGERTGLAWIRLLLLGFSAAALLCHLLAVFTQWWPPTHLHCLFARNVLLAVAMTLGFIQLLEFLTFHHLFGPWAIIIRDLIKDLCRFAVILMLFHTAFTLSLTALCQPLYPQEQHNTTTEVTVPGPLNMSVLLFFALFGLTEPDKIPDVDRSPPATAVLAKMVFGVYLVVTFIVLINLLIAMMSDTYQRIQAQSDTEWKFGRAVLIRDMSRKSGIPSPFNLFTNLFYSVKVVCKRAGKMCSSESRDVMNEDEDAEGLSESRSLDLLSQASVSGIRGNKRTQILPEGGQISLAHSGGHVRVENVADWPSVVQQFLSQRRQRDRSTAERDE
Chain of Mitogen-activated protein kinase 10 (P53779 whole entry): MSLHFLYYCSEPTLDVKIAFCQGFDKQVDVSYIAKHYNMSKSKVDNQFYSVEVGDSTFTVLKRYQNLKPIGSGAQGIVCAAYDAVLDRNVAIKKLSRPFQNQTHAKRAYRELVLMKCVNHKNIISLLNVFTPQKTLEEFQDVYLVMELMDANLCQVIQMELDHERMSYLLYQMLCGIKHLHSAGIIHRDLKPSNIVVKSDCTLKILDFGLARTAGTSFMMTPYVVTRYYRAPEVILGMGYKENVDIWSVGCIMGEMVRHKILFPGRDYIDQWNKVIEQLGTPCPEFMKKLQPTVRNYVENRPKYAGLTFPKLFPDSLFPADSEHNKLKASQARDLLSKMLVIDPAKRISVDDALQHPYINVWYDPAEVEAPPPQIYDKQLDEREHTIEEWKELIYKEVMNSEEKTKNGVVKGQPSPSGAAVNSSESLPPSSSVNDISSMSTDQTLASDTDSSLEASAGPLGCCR
Chain of Paired box protein Pax-8 (Q06710 whole entry): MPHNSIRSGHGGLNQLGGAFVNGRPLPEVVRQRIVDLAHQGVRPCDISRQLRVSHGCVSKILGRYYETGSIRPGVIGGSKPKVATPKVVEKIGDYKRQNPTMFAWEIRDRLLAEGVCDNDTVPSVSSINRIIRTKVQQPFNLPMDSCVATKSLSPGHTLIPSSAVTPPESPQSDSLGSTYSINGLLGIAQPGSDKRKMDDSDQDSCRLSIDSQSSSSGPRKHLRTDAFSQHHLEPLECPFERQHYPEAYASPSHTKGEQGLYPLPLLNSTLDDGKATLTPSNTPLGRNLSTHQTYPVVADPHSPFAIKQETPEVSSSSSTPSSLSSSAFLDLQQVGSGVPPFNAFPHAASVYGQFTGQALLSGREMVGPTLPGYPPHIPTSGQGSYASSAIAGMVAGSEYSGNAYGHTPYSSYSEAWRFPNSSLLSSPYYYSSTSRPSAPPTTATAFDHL
Chain of Nonstructural protein 1 (Q194T2 whole entry): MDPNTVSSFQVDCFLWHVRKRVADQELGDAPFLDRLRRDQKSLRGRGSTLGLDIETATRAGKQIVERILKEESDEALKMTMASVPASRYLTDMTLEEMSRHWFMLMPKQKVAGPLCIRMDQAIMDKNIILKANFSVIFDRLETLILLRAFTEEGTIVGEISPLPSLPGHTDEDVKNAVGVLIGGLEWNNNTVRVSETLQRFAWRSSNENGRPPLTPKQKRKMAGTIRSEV

## O=S(=O)(c1ccc(Cl)cc1Br)N1CCCCC1
Ion channel NompC
  EC50: > 29.9 µM (not active)
Mucolipin-3
  EC50: > 29.9 µM (not active)

## CC[n+]1c(/C=C2\C=C(C)CC(C)(C)C2)sc2ccccc21
[1]
  AC50: > 380 µM (inactive)
[2]
  EC50: 9.81 µM (active)
Protein RecA
  EC50: 27.3 µM (active)
[3]
  EC50: 11.7 µM (active)
[4]
  CC50: 4.22 µM (active)
[5]
  IC50: > 100 µM (active)

## O=C(C1CC1)N1CC(=O)N2[C@H](CO)[C@H](c3ccc(C#CCc4ccccc4)cc3)[C@H]2C1
[6]
  AC50: > 39 µM (inactive)
[7]
  AC50: 9.66 µM (active)

## COc1ccc(S(=O)(=O)NC2CCCC2)c(Cl)c1Cl
Ion channel NompC
  EC50: > 29.9 µM (not active)
Mucolipin-3
  EC50: 3.55 µM (active)

## COc1cccc(CN2C[C@@H]3N[C@H](C2)[C@@H]3c2ccc(-c3cccc(C#N)c3)cc2)c1
[6]
  AC50: 9.19 µM (active)
[7]
  AC50: 3.66 µM (active)

## CC1CCc2nc(N)c(C#N)c(-c3ccncc3)c2C1 (stereo unspecified)
[8]
  IC50: > 93.1 µM (not active)

## C[C@@H]1CN([C@H](C)CO)C(=O)c2cc(C#CCc3ccccc3)cnc2O[C@H]1CN(C)CC1CCCC1
[6]
  AC50: 13.5 µM (active)
[7]
  AC50: 1.91 µM (active)

## O=C(Nc1nc(-c2ccc3ccccc3c2)cs1)C1CCN(S(=O)(=O)c2cccs2)CC1
Ion channel NompC
  EC50: > 29.9 µM (not active)
Mucolipin-3
  EC50: 14.2 µM (not active)

## CN(C)N1C(N)=C(C#N)C(c2cccnc2)C2=C1CCCC2=O (stereo unspecified)
[4]
  CC50: > 40 µM (active)

## Cc1[nH]c(=O)[nH]c1C(=O)CCCCC(=O)OCC(=O)Nc1ccccn1
[8]
  IC50: > 93.1 µM (not active)
Nonstructural protein 1
  IC50: 1.98 µM (active)
[9]
  AC50: 1.26 µM (active)

## CN(C)C(=O)c1cccc(-c2cccc(-c3nc(C(=O)NC4CCCCC4)cc4c3[C@H](CCO)N([S@@+]([O-])C(C)(C)C)C4)c2)c1
[10]
  AC50: 0.736 µM (active)
[11]
  AC50: 1.32 µM (active)
[7]
  AC50: 2.05 µM (active)
[12]
  AC50: 0.933 µM (active)

## C[C@H]1CCCCO[C@@H](CN(C)Cc2ccc(C(F)(F)F)cc2)[C@@H](C)CN([C@@H](C)CO)C(=O)c2cc(NC(=O)Nc3ccc4c(c3)OCO4)ccc2O1
[13]
  AC50: 21.1 µM (active)
Paired box protein Pax-8
  AC50: 7.11 µM (active)
[14]
  AC50: 51.5 µM (active)
[15]
  AC50: 49.6 µM (active)
